Assay results taken from ChEMBL document CHEMBL1201862, “PubChem BioAssay data set” (2004).
The source made the active and inactive calls.

What was measured:
[1] = molecular target: Aryl hydrocarbon receptor (Homo sapiens, UniProt P35869); test: Luminescence-based cell-based high throughput dose response assay for activators of the Aryl Hydrocarbon Receptor (AHR). [Related pubchem assays: 2796 (Primary screen (AHR activators in singlicate)), 2845 (Confirmation screen (AHR activators in triplicate)), 434939 (Counterscreen (PXR activators in triplicate)), 2804 (Summary (AHR activators))]; format: ADME
[2] = Potency on glucagon-like peptide 1 release, dose-response in NCI-H716 cell line, half maximal inhibitory concentration (AID 1117344); format: functional, cell-based
[3] = glucagon-like peptide-1 release potency in STC-1, concentration-response, half-maximal inhibitory concentration in the STC-1 line (AID 1117345); format: functional, cell-based
[4] = ATP-based viability loss in HeLa cells – cell-based, CellTiter-Glo luminescence, dry powder, set 2, cytotoxicity control, dose response (AID 720593); format: functional
[5] = ATP-based viability loss in HEK293T cells – cell-based, CellTiter-Glo luminescence, dry powder, set 2, cytotoxicity control, dose response (AID 720595); format: functional; conditions: HEK293
[6] = P. falciparum Dd2 growth inhibitors, dose response, SYBR Green, cherry-picked samples (AID 1159567); format: functional, cell-based
[7] = toxicity to human hepatoma HepG2 cells – cell-based, cherry-picked samples, cytotoxicity control, dose response (AID 1159577); format: functional
[8] = growth inhibition of PfATP4-mutant resistant parasites – NITD609-resistant line, SYBR Green, dry powder, dose response (AID 1159571); format: functional, cell-based;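 further: parasites synchronized at ring stage by sorbitol before testing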
[9] = toxicity to human HepG2 hepatoma cells – cell-based, plate reader, dry powder samples, cytotoxicity control, dose response (AID 1159569); format: functional;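 further: inhibitor potency with signal falling toward the positive control level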
[10] = growth inhibition of yeast DHODH-expressing 3D7 parasites – SYBR Green, dry powder samples, dose response (AID 1159570); format: functional, cell-based;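 further: parasite growth measured after 72 hours of compound exposure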
[11] = Dd2 malaria parasite growth inhibition potency – SYBR Green, dry powder samples, dose response (AID 1159566); format: functional, cell-based;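 further: potency for growth inhibition with lower SYBR green DNA signal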
[12] = Plasmodium falciparum Dd2 Sybr green parasite growth Measured in Cell-Based and Microorganism Combination System Using Plate Reader - 2153-01_Inhibitor_Dose_DryPowder_Activity_Set3.; format: functional
[13] = Dd2 parasite growth inhibition in erythrocytes – SYBR Green, dry powder samples, set 9, dose response (AID 1159568); format: functional, cell-based
[14] = loss of A549 viability via ATP – cell-based, plate reader, dry powder, set 7, cytotoxicity control, dose response (AID 743318); format: functional
Danio rerio = test: In Vivo Angiogenesis Dose-Response Confirmation. [Related pubchem assays: 732 (Assay preceding this confirmatory assay.)]; format: functional, organism-based
[15] = IC50 of insulin release inhibition, rat insulinoma INS-1E line, 5 mM glucose, cell-based (AID 1117331); format: functional
cells = format: functional, cell-based; conditions: INS-1E
[16] = cytotoxicity toward HCT116 cells – cell-based, CellTiter-Glo luminescence, IC50, dose response (AID 1117332); format: functional; conditions: HCT-116
[17] = CellTiter-Glo luminescence survival assay, SW480 colon tumor line, concentration-response curve, half-maximal inhibitory concentration (AID 1117338); format: functional
[18] = cytotoxicity toward Colo320 cells – cell-based, CellTiter-Glo luminescence, IC50, dose response (AID 1117334); format: functional; conditions: COLO 320
[19] = cytotoxicity toward HT-29 cells – cell-based, CellTiter-Glo luminescence, IC50, dose response (AID 1117330); format: functional
[20] = Reduced DLD-1 viability, concentration-response, CellTiter-Glo luminescence (AID 1117352); format: functional
[21] = RKO cell viability reduction, dose response, CellTiter-Glo luminescence (AID 1117322); format: functional
[22] = HCT116 cell viability decrease, GSK3B pretreatment – CellTiter-Glo, IC50, dose response (AID 1117339); format: functional; conditions: HCT-116
[23] = SNU-C1 cell viability reduction, dose response, CellTiter-Glo luminescence (AID 1117323); format: functional, cell-based

Aryl hydrocarbon receptor, sequence (P35869 whole entry): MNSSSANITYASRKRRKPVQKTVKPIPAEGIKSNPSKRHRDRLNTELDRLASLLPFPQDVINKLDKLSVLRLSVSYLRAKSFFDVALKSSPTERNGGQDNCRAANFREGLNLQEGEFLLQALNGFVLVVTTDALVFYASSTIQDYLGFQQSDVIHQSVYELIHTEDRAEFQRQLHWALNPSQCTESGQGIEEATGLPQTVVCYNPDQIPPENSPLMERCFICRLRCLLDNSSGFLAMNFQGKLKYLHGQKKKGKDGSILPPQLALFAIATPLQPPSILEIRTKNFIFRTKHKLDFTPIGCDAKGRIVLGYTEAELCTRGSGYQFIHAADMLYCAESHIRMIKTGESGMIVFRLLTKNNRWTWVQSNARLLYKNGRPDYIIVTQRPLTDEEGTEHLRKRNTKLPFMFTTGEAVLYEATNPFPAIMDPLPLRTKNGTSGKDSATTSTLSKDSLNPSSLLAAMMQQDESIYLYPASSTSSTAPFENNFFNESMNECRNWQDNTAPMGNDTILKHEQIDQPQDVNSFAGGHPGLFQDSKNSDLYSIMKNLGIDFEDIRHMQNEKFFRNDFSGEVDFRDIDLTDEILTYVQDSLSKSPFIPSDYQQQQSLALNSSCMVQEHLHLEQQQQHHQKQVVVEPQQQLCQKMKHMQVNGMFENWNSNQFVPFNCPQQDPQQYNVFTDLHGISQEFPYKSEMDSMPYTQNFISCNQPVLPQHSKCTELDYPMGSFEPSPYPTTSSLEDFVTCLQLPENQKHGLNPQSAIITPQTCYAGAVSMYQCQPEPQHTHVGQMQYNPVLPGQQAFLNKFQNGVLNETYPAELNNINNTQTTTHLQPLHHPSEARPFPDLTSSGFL

Question: With `CCOCC(=O)Nc1cccc(-c2nc3cccnc3s2)c1C` as the molecule, how does the EC50 [1] read?
Answer: Its EC50 is 4.22 µM (active).

Question: Which IC50 [2] does the source give for `CN(C)[C@@H]1C(O)=C(C(=O)NCN2CCCC2)C(=O)[C@@]2(O)C(O)=C3C(=O)c4c(O)cccc4[C@@](C)(O)C3C[C@@H]12` (stereo not given in full) here?
Answer: Its IC50 is > 40 µM (inactive).

Question: And the IC50 [3]?
Answer: Its IC50 is > 40 µM (inactive).

Question: Which results are given for `CCCCC(=O)NC(c1ccco1)c1ccc2cccnc2c1O` (stereo not given)?
Answer: AC50 [4]: 28.4 µM (active); AC50 [5]: 3.78 µM (active)

Question: For `CCCNC(=O)N1[C@H](C#N)[C@H](c2ccc(C#Cc3ccc(F)cc3)cc2)[C@@H]1CO`, which AC50 [6] is on record?
Answer: Its AC50 is < 0.3 µM (active).

Question: And the AC50 [7]?
Answer: The AC50 was > 39 µM (inactive).

Question: What about the AC50 [8] of the same molecule?
Answer: The AC50 was 0.101 µM (active).

Question: And the AC50 [9]?
Answer: Its AC50 is 41.4 µM (active).

Question: What about the AC50 [10] of the same molecule?
Answer: The AC50 was 3.48 µM (active).

Question: And the AC50 [11]?
Answer: The AC50 was 0.123 µM (active).

Question: What about the AC50 [12] of the same molecule?
Answer: The AC50 was 0.15 µM (active).

Question: What about the AC50 [13] of the same molecule?
Answer: Its AC50 is 0.0575 µM (active).

Question: For `Cc1ccc(C(C)C)c(OCCn2c(=S)[nH]c3cccc(F)c32)c1`, which AC50 [14] is on record?
Answer: The AC50 was 30.2 µM (active).

Question: With `O=C1C(c2c(O)[nH]c3ccc(F)cc23)=Nc2ccccc21` as the molecule, how does the IC50 (Danio rerio) read?
Answer: The IC50 was 2.17 µM (active).

Question: With `CC(C)(Cc1c[nH]c2ccccc12)NCC(O)COc1ccccc1C#N` (stereo not given) [BUCINDOLOL] as the molecule, how does the IC50 [15] read?
Answer: Its IC50 is 15 µM (inactive).

Question: What about the IC50 (cells) of the same molecule?
Answer: The IC50 was > 33.3 µM (inactive).

Question: Which IC50 [16] does the source give for `CNC(=O)Oc1cccc2ccccc12` [CARBARIL] here?
Answer: The IC50 was > 20 µM (inactive).

Question: What about the IC50 [17] of the same molecule?
Answer: Its IC50 is > 20 µM (inactive).

Question: And the IC50 [18]?
Answer: Its IC50 is > 20 µM (inactive).

Question: And the IC50 [19]?
Answer: The IC50 was > 20 µM (inactive).

Question: And the IC50 [20]?
Answer: Its IC50 is > 20 µM (inactive).

Question: What about the IC50 [21] of the same molecule?
Answer: The IC50 was > 20 µM (inactive).

Question: What about the IC50 [22] of the same molecule?
Answer: The IC50 was > 20 µM (inactive).

Question: And the IC50 [23]?
Answer: The IC50 was > 20 µM (inactive).
